Assay [1] deals with T1, rIDUA (human recombinant α-L-iduronidase, Aldurazyme) (Homo sapiens, UniProt P35475).
T1 construct: gene IDUA; therapeutic recombinant enzyme (Aldurazyme, Genzyme), secreted lysosomal glycoprotein; chymotryptic active-site peptide Asn297-Leu303 with nucleophile Glu299
T1 sequence (P35475 28-653): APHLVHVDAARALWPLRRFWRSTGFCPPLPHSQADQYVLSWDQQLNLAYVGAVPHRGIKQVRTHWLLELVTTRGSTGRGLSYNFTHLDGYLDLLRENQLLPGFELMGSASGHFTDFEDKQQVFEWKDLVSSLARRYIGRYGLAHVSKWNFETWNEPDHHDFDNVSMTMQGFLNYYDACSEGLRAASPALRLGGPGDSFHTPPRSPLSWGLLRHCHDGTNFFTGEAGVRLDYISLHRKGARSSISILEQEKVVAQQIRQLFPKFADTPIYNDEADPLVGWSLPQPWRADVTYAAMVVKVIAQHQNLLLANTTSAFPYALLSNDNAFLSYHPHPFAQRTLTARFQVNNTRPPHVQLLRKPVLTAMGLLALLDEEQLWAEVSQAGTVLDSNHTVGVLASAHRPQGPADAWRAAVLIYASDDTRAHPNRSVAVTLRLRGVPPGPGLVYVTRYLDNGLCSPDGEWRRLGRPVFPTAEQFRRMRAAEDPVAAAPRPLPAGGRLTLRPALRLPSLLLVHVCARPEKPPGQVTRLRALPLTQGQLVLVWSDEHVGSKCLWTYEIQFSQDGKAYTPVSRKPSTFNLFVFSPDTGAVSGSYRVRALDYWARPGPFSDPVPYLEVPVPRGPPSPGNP
Kind of assay: biochemical. Details: residual rIDUA activity after 1 h preincubation, fluorogenic 4-MU-alpha-L-IdoA substrate, pH 4.5, apparent IC50. The protocol:
Apparent IC50 values of inhibitors and ABPs on recombinant human iduronidase and cell lysates Inhibitors and ABPs were diluted at various concentrations in 12.5 µL assay buffer and incubated with 12.5 µL rIDUA (5.8 ng, or 70 fmol) or fibroblast lysates (50 µg protein), both diluted in assay buffer, at 37°C for 1 h (rIDUA) or 4 h (fibroblasts lysates), at 1% (v/v) DMSO concentration. This was followed by iduronidase activity assay (30 min incubation time) described in the previous section. The detected 4-MU fluorescence at each concentration for each compound were normalized to the fluorescence from the control sample without inhibitor, and data were fitted with [inhibitor] vs response – variable slope (four parameters) function in Graphpad Prism 7.0 software to obtain apparent IC50 values. Iduronidase activity assay using 4-MU-α-L-IdoA as substrate Samples containing enzyme were diluted in assay buffer (150 mM citrate/Na2HPO4, pH 4.5, supplemented with 0.1% (v/v) Triton X-100, 0.15 M NaCl, 33 mM CaCl2, 33 mM MgCl2), and load onto a black flat-bottom 96-well plate (Greiner) in triplicates of 25 µL per well. Negative controls (blank) were prepared by substituting enzyme samples with buffer. For reaction, samples were added with 25 µL of 360 µM 4-MU-α-L-IdoA1 (prepared in assay buffer supplemented with 0.1 % (w/v) bovine serum albumin (BSA)), and incubated at 37°C for 30 min to 4h. […]

In assay [2] the target is T1, rIDUA (human recombinant α-L-iduronidase, Aldurazyme). Kind of assay: fluorogenic 4-MU-IdoA activity assay. Type of assay: biochemical. The conditions noted are these: pH 4.5, 60 min incubation, competition with 4-MU-IdoA; covalent; read-out: apparent IC50.

Three compounds from publication PMC6343074, “New Irreversible α‐L‐Iduronidase Inhibitors and Activity‐Based Probes” (Chemistry (Weinheim an Der Bergstrasse, Germany), 2018) can be followed below.

Molecules are shown by their SMILES.

On to `OC[C@H]1[C@@H](O)[C@H](O)[C@@H](O)[C@@H]2N[C@H]12` [compound 11, aziridine 11], for which the IC50 – broadly, the concentration needed to halve the response being measured – in assay [1] is more than 100 µM.
Turning to `[N-]=[N+]=NCCCCCCCCN1[C@@H]2[C@@H](CO)[C@@H](O)[C@H](O)[C@@H](O)[C@@H]21` (stereo partly drawn) [compound 12, alkyl aziridine 12], the IC50 in assay [2] came out at 12.2 ± 3.24 µM.
Still for that read-out and setting: the figure for `[N-]=[N+]=NCCCCCCCCN1[C@@H]2[C@@H](C(=O)O)[C@@H](O)[C@H](O)[C@@H](O)[C@@H]21` (stereo partly drawn) [compound 1, inhibitor 1] is 40.6 ± 17 µM.
